According to patent US11999727B2 (Tango Therapeutics, Inc., priority 2020, dated 2024):
Like-named read-outs stand apart in the source and are kept apart here.

What was measured:
[1] = test system: HAP1 MTAP-deleted cell line; experiment: Viability assay, MTAP-deleted cell line; type: cell-based; conditions: Homo sapiens, HAP1, viability assay, read-out: HAP1 MTAP deleted viability
Excerpt: Table 1 additionally indicates IC50 values in a viability assay for the MTAP-deleted cell line (column 10), indicating the effect of treatment with compound on cell survival.

[2] = molecular target: T1, PRMT5 (Homo sapiens, UniProt O14744); experiment: PRMT5 biochemical IC50 assay with MTA as cofactor; conditions: PRMT5, MTA as cofactor; read-out: MTA IC50
T1 construct: purchased Viva (custom protein)
T1 sequence (O14744 whole entry): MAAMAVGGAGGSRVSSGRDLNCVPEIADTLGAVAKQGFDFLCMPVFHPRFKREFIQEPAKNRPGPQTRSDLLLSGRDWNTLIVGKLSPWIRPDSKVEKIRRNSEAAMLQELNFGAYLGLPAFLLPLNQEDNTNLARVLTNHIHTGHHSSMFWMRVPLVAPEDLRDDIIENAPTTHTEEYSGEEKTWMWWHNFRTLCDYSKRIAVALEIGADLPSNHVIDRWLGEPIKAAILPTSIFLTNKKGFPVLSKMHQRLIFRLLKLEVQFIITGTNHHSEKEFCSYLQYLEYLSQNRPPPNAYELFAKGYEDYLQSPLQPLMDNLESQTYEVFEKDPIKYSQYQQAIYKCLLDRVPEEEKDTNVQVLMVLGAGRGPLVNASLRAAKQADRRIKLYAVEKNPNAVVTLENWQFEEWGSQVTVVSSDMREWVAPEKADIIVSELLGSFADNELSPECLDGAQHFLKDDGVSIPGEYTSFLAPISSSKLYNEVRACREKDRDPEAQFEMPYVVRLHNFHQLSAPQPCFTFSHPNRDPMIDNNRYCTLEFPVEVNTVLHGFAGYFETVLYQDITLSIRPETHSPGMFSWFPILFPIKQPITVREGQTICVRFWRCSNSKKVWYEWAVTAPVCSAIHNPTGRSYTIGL
T1 sequence (Q9BQA1 whole entry partner): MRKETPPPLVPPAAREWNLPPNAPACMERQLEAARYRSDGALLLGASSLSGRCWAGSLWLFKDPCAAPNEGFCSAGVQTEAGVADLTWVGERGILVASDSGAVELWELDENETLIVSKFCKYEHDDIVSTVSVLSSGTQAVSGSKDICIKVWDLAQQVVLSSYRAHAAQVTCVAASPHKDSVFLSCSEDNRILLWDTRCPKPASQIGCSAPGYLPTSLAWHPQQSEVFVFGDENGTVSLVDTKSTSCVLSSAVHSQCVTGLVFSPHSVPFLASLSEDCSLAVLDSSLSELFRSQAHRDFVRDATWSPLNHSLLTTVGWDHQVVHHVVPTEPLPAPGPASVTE

[3] = molecular target: T1, PRMT5; experiment: PRMT5 biochemical IC50 assay with no cofactor; conditions: PRMT5, no cofactor
Excerpt: Table 1 indicates IC50 values (μM) against PRMT5 for exemplary compounds in the presence of SAM as cofactor, with no cofactor, and with MTA as cofactor, respectively (columns 4-6). […] Ki values can be calculated from the IC50 values as described in the Examples section. As detailed in the Examples section, for the assay performed in the presence of SAM, IC50=Ki×1.5 (Ki=IC50/1.5).

[4] = molecular target: T1, PRMT5; experiment: PRMT5 biochemical IC50 assay with SAM as cofactor; conditions: PRMT5, SAM as cofactor; read-out: SAM IC50
[5] = read-out: No Cofactor/ rel IC50

Structure (SMILES) | IC50 [2] | IC50 ([3]; read-out: No Cofactor/rel IC50) | IC50 [4] | IC50 [3, 5] | IC50 ([1]; MTAP-deleted cell line) | IC50 ([1]; HAP1 MTAP-deleted)
C[C@H]1CC[C@H](c2ccc(N[C@H](C)C(=O)N(C)C)cc2)N(C(=O)C(=O)Nc2cncc(C(N)=O)c2)C1 (racemic) [Compound 414, 5-[[2-[(2R,5S)-2-[4-[[(1R)-2-(Dimethylamino)-1-methyl-2-oxo-ethyl]amino]phenyl]-5-methyl-1-piperidyl]-2-oxo-acetyl]amino]pyridine-3-carboxamide] | 50 to 500 nM | 50 to 500 nM | 50 to 500 nM | – | > 10000 nM | –
C[C@@H]1CC[C@@H](c2cc(F)cc(F)c2)N(C(=O)C(=O)Nc2cncc(C(N)=O)c2)C1 (racemic) [Compound 416, rac-5-{2-[(2R,5S)-2-(3,5-Difluorophenyl)-5-methylpiperidin-1-yl]-2-oxoacetamido}pyridine-3-carboxamide] | 50 to 500 nM | 50 to 500 nM | 50 to 500 nM | – | 1000 to 10000 nM | –
NC(=O)c1cncc(NC(=O)C(=O)N2CC[C@H]3C[C@@H](O)CC[C@@H]3C2)c1 (racemic) [Compound 418, 5-[2-(6-Hydroxy-decahydroisoquinolin-2-yl)-2-oxoacetamido]pyridine-3-carboxamide] | 50 to 500 nM | > 500 nM | > 500 nM | – | > 10000 nM | –
NC(=O)c1cncc(NC(=O)C(=O)N2CC[C@@]3(O)CCCC[C@H]3C2)c1 (racemic) [Compound 421, 5-[2-(4a-Hydroxy-decahydroisoquinolin-2-yl)-2-oxoacetamido]pyridine-3-carboxamide] | 50 to 500 nM | > 500 nM | > 500 nM | – | > 10000 nM | –
Cc1cc(NC(=O)C(=O)N2C[C@H](C)CC[C@H]2c2ccc3c(cnn3C)c2)cnc1N (racemic) [Compound 922] | < 50 nM | 50 to 500 nM | 50 to 500 nM | – | < 1000 nM | –
COc1ncc(NC(=O)C(=O)N2C[C@@H](C)CC[C@@H]2c2ccc3sc(N)nc3c2)cc1C(N)=O (racemic) [Compound 954, 5-[[2-[(2R,5S)-2-(2-amino-1,3-benzothiazol-5-yl)-5-methyl-1-piperidyl]-2-oxo-acetyl]amino]-2-methoxy-pyridine-3-carboxamide] | 50 to 500 nM | 50 to 500 nM | 50 to 500 nM | – | < 1000 nM | –
Cc1cc(NC(=O)C(=O)N2C[C@H](C)CC[C@H]2c2ccc(C(C)O)cc2)cnc1N (mixture of isomers) [Compound 956, N-(6-amino-5-methyl-3-pyridyl)-2-[(2R,5S)-2-[4-(1-hydroxyethyl)phenyl]-5-methyl-1-piperidyl]-2-oxo-acetamide] | 50 to 500 nM | 50 to 500 nM | 50 to 500 nM | – | 1000 to 10000 nM | –
Cc1cc(NC(=O)C(=O)N2C[C@H](C)CC[C@H]2c2ccc3[nH]c(N)nc3c2)cnc1N (racemic) [Compound 990] | < 50 nM | 50 to 500 nM | 50 to 500 nM | – | 1000 to 10000 nM | –
CC(=O)NCc1ccc([C@@H]2CC[C@@H](C)CN2C(=O)C(=O)Nc2cnc(N)c(C)c2)cc1 (racemic) [Compound 1036, rac-2-[(2R,5S)-2-[4-(Acetamidomethyl)phenyl]-5-methyl-1-piperidyl]-N-(6-amino-5-methyl-3-pyridyl)-2-oxo-acetamide] | 50 to 500 nM | 50 to 500 nM | 50 to 500 nM | – | 1000 to 10000 nM | –
Cn1nccc1C1CCCCN1C(=O)C(=O)Nc1cncc(C(N)=O)c1 (single isomer, unassigned) [Compound 59] | 50 to 500 nM | – | > 500 nM | > 500 nM | > 10000 nM | –
Cc1cc(NC(=O)C(=O)N2C[C@@H]3CC[C@@H](C3)[C@@H]2c2ccccc2)cnc1N (single isomer, unassigned) [Compound 62] | 50 to 500 nM | – | > 500 nM | > 500 nM | > 10000 nM | –
Cc1cncc(NC(=O)C(=O)N2CC(C)CC[C@@H]2c2cccc(F)c2)c1 (single isomer, unassigned) [Compound 84] | > 500 nM | – | > 500 nM | > 500 nM | – | –
C[C@@H]1CC[C@H](c2cccnc2)N(C(=O)C(=O)Nc2cncc(C(N)=O)c2)C1 (single isomer, unassigned) [Compound 98] | > 500 nM | – | > 500 nM | > 500 nM | – | –
Cc1cc(NC(=O)C(=O)N2C[C@@H](C)CC[C@@H]2c2cccs2)cnc1N (single isomer, unassigned) [Compound 122] | > 500 nM | – | > 500 nM | > 500 nM | – | –
C[C@@H]1CC[C@H](C2CCCCC2)N(C(=O)C(=O)Nc2cncc(C(N)=O)c2)C1 (single isomer, unassigned) [Compound 127] | > 500 nM | – | > 500 nM | > 500 nM | – | –
Cc1cc(NC(=O)C(=O)N2C[C@@H](C)CC[C@@H]2C2CCCCC2)cnc1N (single isomer, unassigned) [Compound 152] | > 500 nM | – | > 500 nM | > 500 nM | – | –
C[C@H]1C[C@@H](C)[C@H](c2ccccc2)N(C(=O)C(=O)Nc2cncc(C(N)=O)c2)C1 (single isomer, unassigned) [Compound 275, 5-(2-(3,5-dimethyl-2-phenylpiperidin-1-yl)-2-oxoacetamido)nicotinamide] | > 500 nM | > 500 nM | > 500 nM | – | – | –
C[C@@H]1CCC[C@H](c2ccccc2)N1C(=O)C(=O)Nc1cncc(C(N)=O)c1 (single isomer, unassigned) [Compound 278] | 50 to 500 nM | > 500 nM | > 500 nM | – | > 10000 nM | –
C[C@@H]1C[C@@H](C)[C@@H](c2ccccc2)N(C(=O)C(=O)Nc2cncc(C(N)=O)c2)C1 (single isomer, unassigned) [Compound 286, 5-(2-(3,5-dimethyl-2-phenylpiperidin-1-yl)-2-oxoacetamido)nicotinamide] | > 500 nM | > 500 nM | > 500 nM | – | – | –
Cc1cc(NC(=O)C(=O)N2C[C@H](C)[C@H](C)C[C@@H]2c2ccccc2)cnc1N (single isomer, unassigned) [Compound 299] | > 500 nM | > 500 nM | > 500 nM | – | – | –
Cc1cc([C@H]2CC[C@H](C)CN2C(=O)C(=O)Nc2cncc(C(N)=O)c2)ccc1O (single isomer, unassigned) [Compound 330] | > 500 nM | > 500 nM | > 500 nM | – | – | –
COc1ncc(NC(=O)C(=O)N2C[C@H](C)CC[C@H]2C2CCCCC2)cc1C(N)=O (single isomer, unassigned) [Compound 370] | > 500 nM | > 500 nM | > 500 nM | – | – | –
Cc1ccc([C@H]2CC[C@H](C)CN2C(=O)C(=O)Nc2cncc(C(N)=O)c2)cn1 (single isomer, unassigned) [Compound 645] | > 500 nM | > 500 nM | > 500 nM | – | – | –
C[C@@H]1CC[C@@H](c2cc(Cl)cc(C(F)(F)F)c2)N(C(=O)C(=O)Nc2cncc(C(N)=O)c2)C1 (single isomer, unassigned) [Compound 653] | > 500 nM | > 500 nM | > 500 nM | – | – | –

Second part, led by results:

IC50 [2] | IC50 ([3]; read-out: No Cofactor/rel IC50) | IC50 [4] | IC50 [3, 5] | Structure (SMILES) | IC50 ([1]; MTAP-deleted cell line) | IC50 ([1]; HAP1 MTAP-deleted)
> 500 nM | > 500 nM | > 500 nM | – | Cc1cc(NC(=O)C(=O)N2C[C@H](C)CC[C@H]2C2CCNCC2)cnc1N (racemic) [Compound 708, N-(6-amino-5-methyl-3-pyridyl)-2-[(2R,5S)-5-methyl-2-(4-piperidyl)-1-piperidyl]-2-oxo-acetamide] | – | > 10000 nM
> 500 nM | – | > 500 nM | > 500 nM | CC[C@H]1CC[C@@H](c2ccccc2)N(C(=O)C(=O)Nc2cncc(C)c2)C1 (single isomer, unassigned) [Compound 20] | – | –
50 to 500 nM | – | > 500 nM | > 500 nM | Cc1cc(NC(=O)C(=O)N2CCCC[C@@H]2c2cccnc2)cnc1N (single isomer, unassigned) [Compound 74] | – | –
> 500 nM | – | > 500 nM | > 500 nM | C[C@@H]1CC[C@@H](C2CCCCC2)N(C(=O)C(=O)Nc2cncc(C(N)=O)c2)C1 (single isomer, unassigned) [Compound 130] | – | –
> 500 nM | > 500 nM | > 500 nM | – | Cc1cc(NC(=O)C(=O)N2C[C@H](C)[C@@H](C)C[C@@H]2c2ccccc2)cnc1N (single isomer, unassigned) [Compound 305] | – | –
> 500 nM | > 500 nM | > 500 nM | – | Cc1cc(NC(=O)C(=O)N2C[C@@H](C)CC[C@@H]2c2cccnc2)cnc1N (single isomer, unassigned) [Compound 309] | – | –
> 500 nM | > 500 nM | > 500 nM | – | Cc1cc(NC(=O)C(=O)N2C[C@@H](C)CC[C@@H]2c2cccc(N(C)C)c2)cnc1N (single isomer, unassigned) [Compound 387] | – | –
> 500 nM | > 500 nM | > 500 nM | – | C[C@H]1CC[C@@H](c2ccc(O)nc2)N(C(=O)C(=O)Nc2cncc(C(N)=O)c2)C1 (single isomer, unassigned) [Compound 402] | – | –
> 500 nM | > 500 nM | > 500 nM | – | C[C@@H]1CC[C@@H](c2ccc(C(F)(F)F)c(Cl)c2)N(C(=O)C(=O)Nc2cncc(C(N)=O)c2)C1 (single isomer, unassigned) [Compound 647] | – | –
> 500 nM | > 500 nM | > 500 nM | – | Cc1cc(NC(=O)C(=O)N2C[C@H](C)CC[C@H]2c2ccc3c(c2)C(=O)NC3)cnc1N (single isomer, unassigned) [Compound 656] | – | –
